The source made the active and inactive calls. The calls are words filed in the database; no cut-off is given here.
Tests used:
[1] = system: B16-F10; experiment: Inhibition of cell migration in mouse B16-F10 cells assessed as migration rate at 2 nM incubated for 24 hrs by wound healing assay (reference value: 61.1 %); type: functional; parameters: scale not given: the % may be the effect or the level left
[2] = system: B16-F10; experiment: Induction of apoptosis in mouse B16-F10 cells assessed as viable cells at 1 nM incubated for 12 hrs by Annexin V-FITC/PI staining based flow cytometry (reference value: 93.6 %); type: functional; details: read-out: Activity
[3] = Toxicity in C57 mouse xenografted with mouse B16-F10 cells assessed as monocytes count at 3.5 mg/kg, ip qd for 12 days in presence of NP-19 by biochemical analysis (reference value: 0.080 to 0.610 10^9/L); type: organism-based; details: in vivo, 288 h, time 12 day
[4] = system: MCF7; experiment: Induction of apoptosis in human MCF7 cells assessed as increase in Bax level upto 30 nM incubated for 24 hrs by Western blot analysis; type: functional, cell-based
[5] = system: B16-F10; experiment: Antiproliferative activity against mouse B16-F10 cells incubated for 48 hrs by MTT assay; type: functional, cell-based; details: B16-F10, 48 h
[6] = system: B16-F10; experiment: Inhibition of cell migration in mouse B16-F10 cells assessed as migration rate at 1 nM incubated for 24 hrs by wound healing assay (reference value: 61.1 %); type: functional; parameters: scale not given: the % may be the effect or the level left
[7] = Toxicity in C57 mouse xenografted with mouse B16-F10 cells assessed as WBC count at 7 mg/kg, ip qd for 12 days by biochemical analysis (reference value: 8.240 to 8.340 10^9/L); type: organism-based; details: in vivo, 288 h, time 12 day

IC50 [5]: 11.7 nM
Structure (SMILES): Cc1nc(N(C)c2ccc3c(ccn3C)c2)c2sccc2n1
Activity [1]: 34.6% | viability at 0.001 µM [2]: 77.1% | Activity [3]: 0.06 10^9/L | Activity [4]: Active | Activity [6]: 57.5% | Activity [7]: 2.51 10^9/L

From ChEMBL document CHEMBL5614416, “Discovery of novel thiophene[3,2-d]pyrimidine-based tubulin inhibitors with enhanced antitumor efficacy for combined use with anti-pd-l1 immunotherapy in melanoma” (Eur J Med Chem, 2024)
